Experimental findings from US12660819B2, “Herbicidal derivatives” (SYNGENTA CROP PROTECTION AG, priority 2020, dated 2026) are described below.

Format in all cases: in vivo
Assay [1] deals with Amaranthus retoflexus (AMARE). In words: Pre-emergence Test (glasshouse, percentage damage to the plant). To be noted: 1000 g/ha unless otherwise stated, five-point scale.
Assay [2] concerns Ipomoea hederacea (IPOHE). Kind of assay: Post-emergence Test (glasshouse, percentage damage to the plant). To be noted: post-emergence spray, 1000 g/ha unless otherwise stated, evaluated after 13 days. Put shortly: (§1)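 Compound formulated in 50:50 acetone/water with 0.5% Tween 20 was diluted to an aqueous spray and applied at 1000 g/ha, unless otherwise stated, onto sown pots. Evaluation after 13 days gave percentage damage, banded into a 1–5 score.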

Assay [3] concerns Lolium perenne (LOLPE). The assay is described as above. To be noted: post-emergence spray, 1000 g/ha unless otherwise stated, evaluated after 13 days. Put shortly:
(§2)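 Damage was rated 13 days after treatment and expressed on a five-point scale: 5=81-100%, 4=61-80%, 3=41-60%, 2=21-40%, 1=0-20%. Spray was applied at 1000 g/ha unless otherwise stated, from acetone/water (50:50) with 0.5% Tween 20, to sown pots.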

Assay [4] has as its system Setaria faberi (SETFA). Described as above. To be noted: post-emergence spray, 1000 g/ha unless otherwise stated, evaluated after 13 days. Put shortly:
as §1

Assay [5] has as its system Amaranthus retoflexus (AMARE). The description is as above. To be noted: post-emergence spray, 1000 g/ha unless otherwise stated, evaluated after 13 days. Put shortly:
as §2

Assay [6] relates to Echinochloa crus-galli (ECHCG). The assay is described as above. To be noted: post-emergence spray, 1000 g/ha unless otherwise stated, evaluated after 13 days. Put shortly: as §2
For assay [7], the system named is Solanum nigrum (SOLNI). Described as above. To be noted: post-emergence spray, 1000 g/ha unless otherwise stated, evaluated after 13 days. Put shortly: as §2
Assay [8] deals with Lolium perenne (LOLPE). In words: Pre-emergence Test (glasshouse, percentage damage to the plant). To be noted: 1000 g/ha unless otherwise stated, five-point scale.
Assay [9] concerns Setaria faberi (SETFA). Described as above. To be noted: 1000 g/ha unless otherwise stated, five-point scale.
Assay [10] has as its system Solanum nigrum (SOLNI). The assay is described as above. To be noted: 1000 g/ha unless otherwise stated, five-point scale.
Assay [11] concerns Echinochloa crus-galli (ECHCG). Described as above. To be noted: 1000 g/ha unless otherwise stated, five-point scale.
The test system of assay [12] is Ipomoea hederacea (IPOHE). The assay is described as above. To be noted: 1000 g/ha unless otherwise stated, five-point scale.

With `CCn1c(C)c(-c2ccccn2)c(=O)c(C(=O)O)c1-c1ccc(Cl)c(Cl)c1.Cl` [Compound 28, 2-(3,4-dichlorophenyl)-1-ethyl-6-methyl-4-oxo-5-pyridin-1-ium-2-yl-pyridine-3-carboxylic acid;chloride], in [1], the “percentage damage to the plant, AMARE” value is reported as 1 (1=0-20%). Moreover, in assay [2], the “Post-emergence Test IPOHE, percentage damage to the plant (five-point scale)” value is given as 4 (4=61-80%). Besides, the “Post-emergence Test LOLPE, percentage damage to the plant (five-point scale)” value in the assay on Lolium perenne (LOLPE) [3] is on record as 2 (2=21-40%). The “Post-emergence Test SETFA, percentage damage to the plant (five-point scale)” value in the assay on Setaria faberi (SETFA) [4] was 3 (3=41-60%). Also, the “Post-emergence Test AMARE, percentage damage to the plant (five-point scale)” value in [5] is reported as 2 (2=21-40%). Also, in assay [6], the “Post-emergence Test ECHCG, percentage damage to the plant (five-point scale)” value is reported as 2 (2=21-40%). Also, the “Post-emergence Test SOLNI, percentage damage to the plant (five-point scale)” value with Solanum nigrum (SOLNI) [7] is listed as 3 (3=41-60%). Besides, in the assay with Lolium perenne (LOLPE) [8], the “percentage damage to the plant, LOLPE” value was 1 (1=0-20%). Further, in the assay on Setaria faberi (SETFA) [9], the “percentage damage to the plant, SETFA” value is reported as 1 (1=0-20%). Besides, the “percentage damage to the plant, SOLNI” value in the assay on Solanum nigrum (SOLNI) [10] is 2 (2=21-40%). Further, the “percentage damage to the plant, ECHCG” value in assay [11] is on record as 1 (1=0-20%). For the same compound, the “percentage damage to the plant, IPOHE” value in assay [12] was 3 (3=41-60%).

With `CCn1c(C)c(-c2ccc(Cl)c(Cl)c2)c(=O)c(C(=O)O)c1-c1ccc(Cl)c(Cl)c1` [Compound 29, 2,5-bis(3,4-dichlorophenyl)-1-ethyl-6-methyl-4-oxo-pyridine-3-carboxylic acid], the “percentage damage to the plant, AMARE” value in [1] is 3 (3=41-60%). Moreover, the “Post-emergence Test IPOHE, percentage damage to the plant (five-point scale)” value in assay [2] was 2 (2=21-40%). Further, in the assay on Lolium perenne (LOLPE) [3], the “Post-emergence Test LOLPE, percentage damage to the plant (five-point scale)” value is 2 (2=21-40%). Besides, the “Post-emergence Test SETFA, percentage damage to the plant (five-point scale)” value in the assay with Setaria faberi (SETFA) [4] is reported as 3 (3=41-60%). Moreover, the “Post-emergence Test AMARE, percentage damage to the plant (five-point scale)” value in [5] is on record as 5 (5=81-100%). The “Post-emergence Test ECHCG, percentage damage to the plant (five-point scale)” value in [6] is reported as 1 (1=0-20%). Besides, the “Post-emergence Test SOLNI, percentage damage to the plant (five-point scale)” value with Solanum nigrum (SOLNI) [7] is reported as 3 (3=41-60%). The “percentage damage to the plant, LOLPE” value in the assay with Lolium perenne (LOLPE) [8] is listed as 1 (1=0-20%). In addition, in the assay on Setaria faberi (SETFA) [9], the “percentage damage to the plant, SETFA” value was 3 (3=41-60%). Further, in the assay on Solanum nigrum (SOLNI) [10], the “percentage damage to the plant, SOLNI” value was 1 (1=0-20%). Further, in [11], the “percentage damage to the plant, ECHCG” value was 1 (1=0-20%). In assay [12], the “percentage damage to the plant, IPOHE” value is on record as 1 (1=0-20%).

`CCn1c(C)c(-c2ccsc2)c(=O)c(C(=O)O)c1-c1ccc(Cl)c(Cl)c1` [Compound 30, 2-(3,4-dichlorophenyl)-1-ethyl-6-methyl-4-oxo-5-(3-thienyl)pyridine-3-carboxylic acid]: the “percentage damage to the plant, AMARE” value in [1] is 1 (1=0-20%). The “Post-emergence Test IPOHE, percentage damage to the plant (five-point scale)” value in assay [2] is 3 (3=41-60%). For the same compound, in the assay on Lolium perenne (LOLPE) [3], the “Post-emergence Test LOLPE, percentage damage to the plant (five-point scale)” value is recorded as 2 (2=21-40%). Further, the “Post-emergence Test SETFA, percentage damage to the plant (five-point scale)” value with Setaria faberi (SETFA) [4] was 3 (3=41-60%). The “Post-emergence Test AMARE, percentage damage to the plant (five-point scale)” value in [5] was 4 (4=61-80%). Besides, the “Post-emergence Test ECHCG, percentage damage to the plant (five-point scale)” value in assay [6] is reported as 2 (2=21-40%). In addition, in the assay with Solanum nigrum (SOLNI) [7], the “Post-emergence Test SOLNI, percentage damage to the plant (five-point scale)” value is 3 (3=41-60%). Moreover, the “percentage damage to the plant, LOLPE” value in the assay with Lolium perenne (LOLPE) [8] is 2 (2=21-40%). Besides, the “percentage damage to the plant, SETFA” value in the assay with Setaria faberi (SETFA) [9] is on record as 4 (4=61-80%). Further, in the assay with Solanum nigrum (SOLNI) [10], the “percentage damage to the plant, SOLNI” value is reported as 2 (2=21-40%). The “percentage damage to the plant, ECHCG” value in assay [11] is given as 3 (3=41-60%). The “percentage damage to the plant, IPOHE” value in assay [12] is listed as 2 (2=21-40%).
